Columns and labels:
[1] = residual activity / half life of coelenterazine in solutions with or without antioxidant; format: physicochemical; conditions: 10 μM coelenterazine, 0.1M Tris-HCl pH 7.4/0.3 M Sodium ascorbate vs NaCl, Na2SO3, Thiourea solutions
Protocol: The following four solutions were prepared, coelenterazine was dissolved at a final concentration of 10 μM, and the residual activity of coelenterazine was examined to determine a half life. In FIG. 7, the half life is shown in the solution of (1) 0.1M Tris-HCl pH 7.4/0.3 M NaCl, (2) 0.1M Tris-HCl pH 7.4/0.3 M Sodium ascorbate, (3) 0.1M Tris-HCl pH 7.4/0.2 M Na2SO3 or (4) 0.1M Tris-HCl pH 7.4/0.2 M Thiourea. […] It is desirable to add sodium ascorbate in the dual reporter assay.

[2] = self-luminescence activity of coelenterazine in 10% FBS solution; format: physicochemical; conditions: 10 μM or 100 μM coelenterazine, 10% FBS medium, with sodium ascorbate salt solution
Protocol: The following two solutions were prepared, coelenterazine was dissolved at a final concentration of 10 μM or 100 μM, the solution was mixed with the medium for animal cells (solution containing 10% FBS), and the luminescence for 10 seconds was measured as the background. […] The luminescence activity (RLU: relative light unit) was measured, the ratio of its actually measured value to the self-luminescence was calculated and correctively shown in FIG. 8.

copepod luciferase = assay: ratio of luminescence to self-luminescence by copepod luciferase; format: biochemical; conditions: 10 μM or 100 μM coelenterazine, copepod luciferase medium with 10% FBS, with sodium ascorbate salt solution
Protocol: Using the medium (containing 10% FBS) of copepod luciferase secreted from the animal cells, the coelenterazine solution prepared in Example 8 was dissolved at a final concentration of 10 μM or 100 μM, and the resulting solution was mixed with the medium (containing 10% FBS) for the animal cells at 1:1 (volume ratio), and the luminescence for 10 seconds was measured as the background activity. At that time, a reaction solution was 0.1M Tris-HCl pH 7.4/0.3 M, and the effect with or without the addition of 0.3 M […] was examined. The luminescence activity was measured, the ratio of the actually measured value to the self-luminescence (signal to background) was calculated, and collectively shown in FIG. 9. […] This way, the antioxidant has almost no effect on the oxidation reaction by luciferase and could reduce only the background.

For `Oc1ccc(Cc2nc3c(Cc4ccccc4)nc(-c4ccc(O)cc4)cn3c2O)cc1` [coelenterazine], the half life [1] was “widely prolonged”, the “self-luminescence (background, RLU)” value [2] was “reduction of the self-luminescence” and the “ratio of the luminescence to the self-luminescence (signal to background)” value (copepod luciferase) was “at least two times or more”.
